The results in this text go back to patent publication US9301885B2, “Absorbent article” (UNICHARM CORPORATION, priority 2011, dated 2016).

A short description of this data set: Water solubility. The conditions noted are these: in 100 g of water at 25° C., 24 hours, visual evaluation.

Description: As used herein, the term “solubility” used herein in regard to water solubility includes cases where the sample completely dissolves in deionized water to form a homogeneous mixture, and cases where the sample is completely emulsified. As used herein, “completely” means that none of the sample remains in the deionized water.

Molecule `CCCCC(CC)C(=O)OCC(C)(C)COC(=O)C(CC)CCCC` (centres unmarked) [H-208BRS, Neopentylglycol di(2-ethylhexanoate)] showed a Water solubility (Table 2) below 0.05 g and a Water solubility (Table 3) below 0.05 g.
